Experimental data from PMC5504357, “Antifungal Potential of Copper(II), Manganese(II) and Silver(I) 1,10-Phenanthroline Chelates Against Multidrug-Resistant Fungal Species Forming the Candida haemulonii Complex: Impact on the Planktonic and Biofilm Lifestyles” (Frontiers in Microbiology, 2017).
Like-named read-outs stand apart in the source and are kept apart here.

Tests used:
Candida duobushaemulonii [1] = assay: Planktonic growth, broth microdilution (CLSI M27-A3), MIC; format: cell-based; conditions: for GM-MIC: geometric mean of three C. duobushaemulonii isolates; for MIC: planktonic, 48 h, 37°C
Description: (§1) Three clinical isolates of each species that form the C. haemulonii complex were used in this study: C. haemulonii (LIPCh4 from finger nail, LIPCh7 from toe nail, and LIPCh12 from blood), C. duobushaemulonii (LIPCh1 from finger nail, LIPCh6 from toe nail, and LIPCh8 from blood) and C. haemulonii var. vulnera (LIPCh5 from toe nail, LIPCh9 from urine, and LIPCh11 from blood) (Ramos et al., [2015]). The fungal isolates were identified by the automatized system VITEK® 2 and then characterized by ITS1-5.8S-ITS2 gene sequencing (Ramos et al., [2015]). Fungal cells were cultured in Sabouraud-dextrose medium under constant agitation (130 rpm) for 48 h at 37°C. Human lung adenocarcinoma A549 cells were maintained in culture flasks containing DMEM medium supplemented with 10% fetal bovine serum at 37°C in an atmosphere of 5% CO2.
(§2) Susceptibility profile assays were performed in accordance with the broth microdilution protocol described in the document M27-A3 published by the Clinical and Laboratory Standards Institutes (CLSI, [2008]). Samples of the test chelates were dissolved in DMSO (500 μL) and then serially diluted in a 96-well plate containing RPMI 1640 (Sigma-Aldrich, USA) to give the concentration range of 0.0625-32 mg/L. Aqueous solutions of the metal-free phen ligand and the simple metal salts, MnCl2, CuCl2, and AgNO3, were also screened over the same concentration range. Caspofungin (Sigma-Aldrich) was used as a classical antifungal agent able to block the growth of all clinical isolates of C. haemulonii species as previously reported by our research group (Ramos et al., [2015]). Water dilutions containing DMSO concentrations corresponding to those used to prepare the drug solutions were assessed in parallel. Untreated and compound-treated fungal cells were incubated at 37°C for 48 h and the minimal inhibitory concentration (MIC) was established as the lowest compound concentration where no cellular growth could be detected by visual inspection in accordance to the CLSI recommendation. The geometric mean of the MIC values (GM-MIC) of each compound against all the fungal isolates was calculated using the software, Microsoft Office Excel 2013.

[2] = system: Candida haemulonii var. vulnera; assay: as above; format: cell-based; conditions: for GM-MIC: geometric mean of three C. haemulonii var. vulnera isolates; for MIC: planktonic, 48 h, 37°C
Description: as §1, §2

Candida haemulonii [3] = assay: as above; format: cell-based; conditions: for GM-MIC: geometric mean of three C. haemulonii isolates; for MIC: planktonic, 48 h, 37°C
Description: as §1, §2

C. haemulonii complex = assay: Planktonic growth, overall across all nine isolates; format: cell-based, Candida haemulonii complex; conditions: for Overall GM-MIC / MIC: geometric mean across all nine strains; for MIC: in μM, read-out: Overall GM-MIC
Description: as §1, §2

A549 cells = assay: Mammalian cell toxicity (MTT assay) and selectivity index; format: cell-based, Human
Description: as §1
The cytotoxicity was evaluated using the MTT [3-(4,5-dimethylthiazol-2-yl)-2,5-diphenyl tetrazolium bromide] (Sigma-Aldrich) assay (Mosmann, [1983]). A549 cells (10^4) were seeded into tissue culture plates (TPP, Switzerland) and cultured for 24 h at 37°C in a 5% CO2 in order to obtain cellular confluence. The wells were then washed twice with DMEM to remove non-adherent cells and the test compounds were added (in concentrations ranging from 0.0313 to 512 μg/mL) to plates containing DMEM, followed by a 48 h incubation period under the same conditions mentioned above. The cellular viability was evaluated by adding MTT to each well and incubating the plates in the dark for 3 h, allowing the viable cells containing active mitochondrial dehydrogenase enzymes to metabolize MTT-tetrazolium salt into purple formazan. The formazan crystals were then dissolved in DMSO (100 μL) and the absorbance (450 nm) measured using a Thermomax Molecular Device microplate reader. The concentration capable of reducing cellular viability by 50% (CC50) was calculated, and the selectivity index (SI) determined using the following equation: A549 CC50/C. haemulonii complex GM-MIC.

Candida duobushaemulonii [4] = assay: Biofilm-growing cells, XTT assay, bMIC; format: cell-based; conditions: for GM-bMIC: geometric mean, C. duobushaemulonii isolates; for bMIC: mature biofilm, 48 h, 50% inhibition of metabolic activity
Procedure: (§3) The effect of the compounds on biofilm-growing cells was determined using the previously described microtiter-based technique (Ramage et al., [2001]). The fungi (10^6 yeast cells) were incubated for 48 h at 37°C in 96-well polystyrene microtiter plates (Corning®, Corning Incorporated, USA) containing Sabouraud-dextrose broth to accommodate biofilm formation. Following biofilm formation, the culture medium was aspirated and non-adherent cells removed by thoroughly washing the wells three times with sterile PBS (0.15 M NaCl, 0.01 M phosphate buffer, pH 7.2). Afterwards, the compounds, at the same concentrations used in the planktonic assays, were added to the wells, and the plates were incubated for further 48 h at 37°C. The metabolic activity was then evaluated using a colorimetric assay that measures the metabolic reduction of 2,3-bis (2-methoxy-4-nitro-5-sulfophenyl)-5-[(phenylamino) carbonyl]-2H-tetrazolium hydroxide (XTT; Sigma-Aldrich) to a water-soluble, brown formazan product (Peeters et al., [2008]). The biofilm MIC (bMIC) for each compound was established as the minimal concentration capable of inhibiting 50% of metabolic activity when compared to compound-free wells (Ziccardi et al., [2015]).

[5] = system: Candida haemulonii var. vulnera; assay: Biofilm-growing cells, XTT assay, bMIC; format: cell-based; conditions: for GM-bMIC: geometric mean, C. haemulonii var. vulnera isolates; for bMIC: mature biofilm, 48 h, 50% inhibition of metabolic activity
Procedure: as §3

Candida haemulonii [6] = assay: Biofilm-growing cells, XTT assay, bMIC; format: cell-based; conditions: for GM-bMIC: geometric mean, C. haemulonii isolates, values marked * do not include LIP Ch4 (>512); for bMIC: mature biofilm, 48 h, 50% inhibition of metabolic activity
Procedure: as §3

[7] = system: Candida haemulonii complex; assay: Biofilm-growing cells, overall across isolates; format: cell-based; conditions: for Overall GM-bMIC: geometric mean across strains, values marked * do not include LIP Ch4 (>512); for decrease in activity on going from planktonic to biofilm cells: biofilm MIC versus planktonic MIC
Procedure: as §3

SMILES | GM-MIC (Candida duobushaemulonii [1]) [µg/mL] | MIC (Candida duobushaemulonii [1]; isolate LIP Ch1) [µg/mL] | MIC (Candida duobushaemulonii [1]; isolate LIP Ch6) [µg/mL] | MIC (Candida duobushaemulonii [1]; isolate LIP Ch8) [µg/mL] | GM-MIC [2] [µg/mL] | MIC ([2]; isolate LIP Ch5) [µg/mL] | MIC ([2]; isolate LIP Ch9) [µg/mL] | MIC ([2]; isolate LIP Ch11) [µg/mL] | GM-MIC (Candida haemulonii [3]) [µg/mL] | MIC (Candida haemulonii [3]; isolate LIP Ch4) [µg/mL] | MIC (Candida haemulonii [3]; isolate LIP Ch7) [µg/mL] | MIC (Candida haemulonii [3]; isolate LIP Ch12) [µg/mL] | Overall GM-MIC (C. haemulonii complex) [µg/mL] | MIC (C. haemulonii complex) [µM] | GM-bMIC (Candida duobushaemulonii [4]) [mg/L] | bMIC (Candida duobushaemulonii [4]; isolate LIP Ch1) [mg/L] | GM-bMIC [5] [mg/L] | bMIC ([5]; isolate LIP Ch9) [mg/L] | bMIC ([5]; isolate LIP Ch13) [mg/L] | GM-bMIC (Candida haemulonii [6]) | also measured
O.O.O=C([O-])c1ccccc1C(=O)[O-].[Mn+2].c1cnc2c(c1)ccc1cccnc12 [compound 8, [Mn(ph)(phen)(H2O)2]] | 5.04 | 8 | 4 | 4 | 4 | 4 | 4 | 4 | 5.04 | 8 | 4 | 4 | 4.67 | 10.71 | 10.08 | 16 | 16 | 16 | 8 | 8^* mg/L | A549 (CC50) (A549 cells): 234.51 µg/mL; bMIC (Candida duobushaemulonii [4]; isolate LIP Ch6): 8 mg/L; bMIC (Candida duobushaemulonii [4]; isolate LIP Ch8): 8 mg/L; bMIC ([5]; isolate LIP Ch5): 32 mg/L; bMIC (Candida haemulonii [6]; isolate LIP Ch4): >512 mg/L; bMIC (Candida haemulonii [6]; isolate LIP Ch7): 4 mg/L; bMIC (Candida haemulonii [6]; isolate LIP Ch14): 16 mg/L; Overall GM-bMIC ([7]; in μM): 25.98 µM; Overall GM-bMIC [7]: 11.31 mg/L
O.O.O.O.O.O=C([O-])c1ccccc1C(=O)[O-].[Mn+2].c1cnc2c(c1)ccc1cccnc12.c1cnc2c(c1)ccc1cccnc12 [compound 9, [Mn(ph)(phen)2(H2O)].4H2O] | 2 | 2 | 2 | 2 | 2 | 2 | 2 | 2 | 2 | 2 | 2 | 2 | 2 | 2.98 | 5.04 | 16 | 6.35 | 4 | 4 | 25.40 mg/L | A549 (CC50) (A549 cells): 259.34 µg/mL; bMIC (Candida duobushaemulonii [4]; isolate LIP Ch6): 4 mg/L; bMIC (Candida duobushaemulonii [4]; isolate LIP Ch8): 2 mg/L; bMIC ([5]; isolate LIP Ch5): 16 mg/L; bMIC (Candida haemulonii [6]; isolate LIP Ch4): 512 mg/L; bMIC (Candida haemulonii [6]; isolate LIP Ch7): 2 mg/L; bMIC (Candida haemulonii [6]; isolate LIP Ch14): 16 mg/L; Overall GM-bMIC ([7]; in μM): 13.93 µM; Overall GM-bMIC [7]: 9.33 mg/L
[Ag+].[O-][Cl+3]([O-])([O-])[O-].c1cnc2c(c1)ccc1cccnc12.c1cnc2c(c1)ccc1cccnc12 [compound 17, [Ag(phen)2]ClO4] | 1.59 | 2 | 1 | 2 | 0.63 | 1 | 0.5 | 0.5 | 1 | 1 | 1 | 1 | 1 | 1.76 | 10.08 | 16 | 8 | 0.5 | 8 | 20.16 mg/L | A549 (CC50) (A549 cells; MTT, 48 h incubation): 2.07 µg/mL; bMIC (Candida haemulonii [6]; isolate LIP Ch4): 32 mg/L; bMIC (Candida haemulonii [6]; isolate LIP Ch7): 32 mg/L; bMIC (Candida haemulonii [6]; isolate LIP Ch14): 8 mg/L; decrease in activity on going from planktonic to biofilm cells [7]: 12.3 fold; Overall GM-bMIC ([7]; in μM): 21.73 µM; Overall GM-bMIC [7]: 12.34 mg/L
O=[N+]([O-])[O-].[Ag+] [AgNO3, reference compound] | 0.63 | 0.5 | 0.5 | 1 | 0.5 | 0.5 | 0.5 | 0.5 | 0.79 | 1 | 0.5 | 1 | 0.63 | 3.93 | 32 | 16 | 40.32 | 64 | 8 | 16^* mg/L | effect on planktonic fungal growth/viability (in words) (C. haemulonii complex; nine clinical isolates, 0.0625-32 mg/L): appreciably deterred fungal growth; A549 (CC50) (A549 cells; MTT, 48 h incubation): 16.98 µg/mL; bMIC (Candida duobushaemulonii [4]; isolate LIP Ch6): 16 mg/L; bMIC (Candida duobushaemulonii [4]; isolate LIP Ch8): 128 mg/L; bMIC ([5]; isolate LIP Ch5): 128 mg/L; bMIC (Candida haemulonii [6]; isolate LIP Ch4): >512 mg/L; bMIC (Candida haemulonii [6]; isolate LIP Ch7): 8 mg/L; bMIC (Candida haemulonii [6]; isolate LIP Ch14): 32 mg/L; decrease in activity on going from planktonic to biofilm cells [7]: 43.8 fold; Overall GM-bMIC ([7]; in μM): 172 µM; Overall GM-bMIC [7]: 29.34 mg/L
CCO.O.O.O.O.O.O.O=C([O-])c1cccc(C(=O)[O-])c1.[Cu+2].c1cnc2c(c1)ccc1cccnc12.c1cnc2c(c1)ccc1cccnc12 [compound 3, [Cu(isoph)(phen)2].6H2O.EtOH] | 5.04 | 4 | 8 | 4 | 6.35 | 4 | 8 | 8 | 10.08 | 8 | 8 | 16 | 6.86 | 9.21 | 12.70 | 32 | 12.70 | 8 | 16 | 20.16 mg/L | A549 (CC50) (A549 cells; MTT, 48 h incubation): 0.89 µg/mL; bMIC (Candida duobushaemulonii [4]; isolate LIP Ch6): 8 mg/L; bMIC (Candida duobushaemulonii [4]; isolate LIP Ch8): 8 mg/L; bMIC ([5]; isolate LIP Ch5): 16 mg/L; bMIC (Candida haemulonii [6]; isolate LIP Ch4): 32 mg/L; bMIC (Candida haemulonii [6]; isolate LIP Ch7): 16 mg/L; bMIC (Candida haemulonii [6]; isolate LIP Ch14): 16 mg/L; Overall GM-bMIC ([7]; in μM): 19.95 µM; Overall GM-bMIC [7]: 14.81 mg/L
